Columns and labels:
[1] = system: cell-surface CD154; experiment: Flow cytometry of cell-surface CD154 and CD3-ε on SLE T cells; format: cell-based, human
Description: In agreement with previous work (M. Koshy, et al., J. Clin. Invest. 98, 826 (1996); A. Desai-Mehta, et al., J. Clin. Invest. 97, 2063 (1996)), we find that an increased proportion of SLE T cells express cell-surface CD154 compared to normal and disease controls. To determine if TSA-dependent down-regulation of CD154 mRNA reduces surface expression of CD154, SLE T cells were treated for 18 hr with TSA and the proportion of CD154^+ cells quantified by flow cytometry (E. Hagiwara, et al., Arthritis Rheum. 39, 379 (1996)). […] T cells were stained with saturating concentrations of monoclonal FITC-anti-CD3 and PE anti-CD154 antibodies (Caltag Labs, Burlingame, Calif.) for 30 min at 4° C., and the proportion of cells expressing CD3-ε and CD154 was quantified. In sum, these experiments reveal that TSA down-regulates both CD154 mRNA and protein expression, but not GAPDH mRNA or CD3-ε expression, in SLE T cells.

[2] = system: TGF-β1 protein; experiment: TGF-β1 protein secretion by PBMCs; format: cell-based, human
Description: Gene expression of TGF-β1 was tested to determine if the gene expression is suppressed by deacetylation of histones in SLE. In this determination, SLE PBMCs or isolated T cells were treated with the histone deacetylase inhibitors (HDIs), TSA or SAHA, for 18hr. […] Subsequently, semi-quantitative PCR was performed to determine the amounts of […] transcripts in SLE and control T cells treated with vehicle or TSA (1000 ng/ml). […] There is no change in GAPDH transcript in normal and SLE T cells after treatment of HDIs. Increased TGF-β1 transcript was associated with a subsequent increase in TGF-β1 protein secretion by SLE PBMCs. When compared to vehicle treated PBMCs, total TGF-β1 protein in culture supernatants from SLE PBMCs increased by approximately 30%. In contrast, there was no increase in total TGF-β1 secretion in TSA treated cells in normal healthy controls. Similar results may be obtained by SAHA.

[3] = system: acetylated histones H3 and H4 in the TGF-β1 promoter; experiment: Chromatin immunoprecipitation (ChIP) assay, TGF-β1 gene promoter; format: cell-based, human
Excerpt: The effect of HDAC inhibition on the acetylation of H3 or H4 associated with the TGF-β1 gene promoter was examined using the chromatin immunoprecipitation (ChIP) assay in an attempt to determine if HDIs induce accumulation of acetylated histones in chromatin associated with the TGF-β1 promoter in SLE PBMCs but not in healthy normal controls. The study undertaken included immunoprecipitating formaldehyde cross-linked, sonicated chromatin fragments from vehicle- and HDI-treated cells using anti-acetyl H3 and H4 antibodies, respectively. The immunoprecipitated DNA released from the bound protein was analyzed by quantitative PCR. A series of primer sets encompassing the TGF-β1 gene from −1.4 kbp to +0.6 kbp relative to the start site of transcription were created (FIG. 6A). Approximately a 12- and 4-fold enhancement of acetylated histones H3 and H4, respectively, in the TGF-β1 promoter in SLE was observed (FIGS. 6B & 6C).
To determine whether this effect was selective for the TGF-β1 gene in SLE PBMCs, the level of histone acetylation in the glucose-6-phosphate dehydrogenase (G6PD) gene was also examined. As shown in FIGS. 6E & 6F, there was no change in the levels of acetylated histones H3 and H4 at the G6PD gene in SLE PBMCs.

[4] = system: SP1 binding; experiment: SP1 binding at TGF-β1 promoter; format: cell-based, human; conditions: after treatment with TSA
Excerpt: Exposure of SLE PBMCs to TSA and SAHA yielded an eight-fold increase in TGF-β1 transcript and a 30% rise in the synthesis of TGF-β1 protein. This enhanced transcriptional activation was temporally associated with increased acetylation of both H3 and H4 nucleosomal histones. […] The increase in total acetylated histones was not global; neither GAPDH nor G6PD genes were transcriptionally activated. […] Thus, the capacity of HDIs to increase the endogenous synthesis of TGF-β1 raises the possibility that these inhibitors could be therapeutic candidates for the treatment of SLE, atherosclerosis, and osteoporosis in addition to cancers.

[5] = system: IFN-γ mRNA; experiment: IFN-γ mRNA in MRL/lpr splenocytes; format: cell-based, mouse
Description: In determining whether TSA can down-regulate IFN-γ mRNA, splenocytes from older, 24-wk MRL/lpr mice were treated with 0 to 500 ng/ml of TSA for 18 hr. […] Compared to splenocytes from 10-wk old mice that had low IFN-γ mRNA (FIG. 8B, lane 1), older mice had higher constitutive levels of IFN-γ transcripts normalized to the housekeeping gene, GAPDH (FIG. 8A, lane 1). […] Maximal inhibition of IFN-γ transcript consistently occurred at 500 ng/ml of TSA.
To establish whether TSA or SAHA down-regulates Con A-induced IFN-γ mRNA expression, splenocytes from 10-wk old mice were stimulated with Con A (10 μg/ml) for 18 hr. From previous kinetic studies, IFN-γ mRNA is maximally expressed when T cells are activated for 18 hr. […] Thus, both TSA and SAHA inhibit IFN-γ. mRNA up-regulation in response to mitogenic stimulation.

[6] = system: IL-6 protein; experiment: IL-6 protein secretion by MRL/lpr splenocytes; format: cell-based, mouse; conditions: splenocytes with LPS and IFN-γ 72 hr; stimulated control 34.4±7.6 pg/ml; p=0.002
Description: In determining whether TSA or SAHA down-regulate IL-6 mRNA content, splenocytes from 24-wk MRL/lpr mice were treated with increasing concentrations of TSA for 18 hr. […] TSA decreased IL-6 transcript at a concentration of 100 ng/ml and exerted maximal inhibition at 300 ng/ml. To address whether TSA and SAHA down-regulate LPS- and IFN-γ induced IL-6 transcript levels, splenocytes from younger MRL/lpr mice were treated in the absence or presence of TSA or SAHA for 18 hr before LPS and IFN-γ stimulation for 6 or 18 hr. […] Next, the effect of TSA and SAHA on IL-6 protein secretion in stimulated splenocytes was measured (FIG. 10D). When splenocytes were cultured with LPS and IFN-γ for 72 hr, there was a mean (±SEM) 34.4±7.6 pg/ml of IL-6 protein secretion.

## CC(/C=C/C(=O)NO)=C\[C@@H](C)C(=O)c1ccc(N(C)C)cc1 [TSA, Trichostatin A]
[1]; SLE T cells pretreated with TSA 1000 ng/ml 18 hr, PMA+IO 24 hr, P=0.005
  new population of CD154+ cells induced by PMA+IO: completely inhibited
[1]; SLE T cells, with or without TSA and PMA+IO
  CD3-ε expression: remained stable
[1]; non-activated SLE T cells, TSA, over 24 hr, vs untreated
  reduction of cell-surface CD154+ cells: did not effect any significant reduction
[2]; SLE PBMCs exposed to TSA and SAHA (summary statement)
  rise in the synthesis of TGF-β1 protein: 30%
[2]; SLE PBMCs, compared to vehicle treated PBMCs
  increase of total TGF-β1 protein in culture supernatants: approximately 30%
[2]; TSA treated cells of normal healthy controls
  total TGF-β1 secretion: no increase
[3]; SLE PBMCs
  acetylated state of G6PD gene: does not change
[3]; SLE PBMCs, ChIP
  enhancement of acetylated histone H3 in the TGF-β1 promoter: ~12 fold
  enhancement of acetylated histone H4 in the TGF-β1 promoter: ~4 fold
[3]; normal PBMCs treated with TSA
  enhancement of acetylated histones H3 and H4 at the TGF-β1 promoter: essentially no enhancement
[4]
  SP1 binding after localized acetylation of the TGF-β1 promoter: not associated with a concomitant increase
[5]; splenocytes from 10-wk old mice preincubated 18 hr, Con A 10 μg/ml 18 hr, vs vehicle
  Con A-induced up-regulation of IFN-γ transcript: markedly reduced
[5]; splenocytes from 24-wk MRL/lpr mice, 0 to 500 ng/ml TSA, 18 hr
  TSA concentration of maximal inhibition of IFN-γ transcript: 500 ng/mL
[6]
  IL-6 protein secretion: no detectable IL-6 protein secretion

Reference: patent US7271198B2, “Method of treating autoimmune diseases” (Wake Forest University, priority 2000, dated 2007)
